In the supplement of paper PMC10307832:

Key:
Assay in all cases: relative viability (nuclei count vs DMSO), 5 days (fraction); higher = more cells survive
Linsitinib + Bortezomib = compound: C[C@]1(O)C[C@@H](c2nc(-c3ccc4ccc(-c5ccccc5)nc4c3)c3c(N)nccn32)C1 [Linsitinib] + CC(C)C[C@H](NC(=O)[C@H](Cc1ccccc1)NC(=O)c1cnccn1)B(O)O [Bortezomib] (partner 0.002 µM)
Outline: (§1)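 Relative viability is defined as nuclei in treated wells over nuclei in vehicle wells. Duplicate plates were run and medians reported. Lung cancer cell lines in 1536-well plates were dosed by pin tool one day after seeding, with one drug or with a fixed anchor-drug dose plus five library-drug doses (not always all listed) in √10 steps, and nuclei were counted after 5 days.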

Ispinesib + Linsitinib = compound: Cc1ccc(C(=O)N(CCCN)[C@@H](c2nc3cc(Cl)ccc3c(=O)n2Cc2ccccc2)C(C)C)cc1 [Ispinesib] + C[C@]1(O)C[C@@H](c2nc(-c3ccc4ccc(-c5ccccc5)nc4c3)c3c(N)nccn32)C1 [Linsitinib] (partner 1 µM)
Outline: as §1

Linsitinib + Navitoclax = compound: C[C@]1(O)C[C@@H](c2nc(-c3ccc4ccc(-c5ccccc5)nc4c3)c3c(N)nccn32)C1 [Linsitinib] + CC1(C)CCC(c2ccc(Cl)cc2)=C(CN2CCN(c3ccc(C(=O)NS(=O)(=O)c4ccc(N[C@H](CCN5CCOCC5)CSc5ccccc5)c(S(=O)(=O)C(F)(F)F)c4)cc3)CC2)C1 [Navitoclax] (partner 0.5 µM)
Outline: as §1

Linsitinib + Tozasertib = compound: C[C@]1(O)C[C@@H](c2nc(-c3ccc4ccc(-c5ccccc5)nc4c3)c3c(N)nccn32)C1 [Linsitinib] + Cc1cc(Nc2cc(N3CCN(C)CC3)nc(Sc3ccc(NC(=O)C4CC4)cc3)n2)n[nH]1 [Tozasertib] (partner 0.1 µM)
Outline: as §1

| Cell Line | relative viability (Linsitinib + Bortezomib; first compound 0.01 µM) | relative viability (Linsitinib + Bortezomib; first compound 0.03162 µM) | relative viability (Linsitinib + Bortezomib; first compound 0.1 µM) | relative viability (Linsitinib + Bortezomib; first compound 0.3162 µM) | relative viability (Linsitinib + Bortezomib; first compound 1 µM) | relative viability (Ispinesib + Linsitinib; first compound 0.001 µM) | relative viability (Ispinesib + Linsitinib; first compound 0.003162 µM) | relative viability (Ispinesib + Linsitinib; first compound 0.01 µM) | relative viability (Ispinesib + Linsitinib; first compound 0.03162 µM) | relative viability (Ispinesib + Linsitinib; first compound 0.1 µM) | relative viability (Linsitinib + Navitoclax; first compound 0.01 µM) | relative viability (Linsitinib + Navitoclax; first compound 0.03162 µM) | relative viability (Linsitinib + Navitoclax; first compound 0.1 µM) | relative viability (Linsitinib + Navitoclax; first compound 0.3162 µM) | relative viability (Linsitinib + Navitoclax; first compound 1 µM) | relative viability (Linsitinib + Tozasertib; first compound 0.01 µM) | relative viability (Linsitinib + Tozasertib; first compound 0.03162 µM) | relative viability (Linsitinib + Tozasertib; first compound 0.1 µM) | relative viability (Linsitinib + Tozasertib; first compound 0.3162 µM) | relative viability (Linsitinib + Tozasertib; first compound 1 µM) |
| --- | --- | --- | --- | --- | --- | --- | --- | --- | --- | --- | --- | --- | --- | --- | --- | --- | --- | --- | --- | --- |
| NCI-H1437 | 0.561 | 0.507 | 0.545 | 0.302 | 0.38 | 1.12 | 1.28 | 1.54 | 0.995 | 0.303 | 1.03 | 0.994 | 1.1 | 1.01 | 1.02 | 0.388 | 0.352 | 0.444 | 0.333 | 0.451 |
| NCI-H1651 | 0.954 | 0.976 | 0.792 | 0.82 | 0.916 | 1.16 | 0.921 | 1.18 | 1.05 | 0.203 | 0.978 | 1.1 | 0.925 | 0.958 | 0.981 | 0.619 | 0.646 | 0.714 | 0.484 | 0.513 |
| NCI-H1666 | 0.675 | 0.798 | 0.774 | 0.348 | 0.308 | 1.05 | 0.907 | 0.833 | 0.767 | 0.408 | 0.994 | 0.867 | 0.939 | 0.549 | 0.646 | 0.595 | 0.628 | 0.587 | 0.545 | 0.434 |
| NCI-H1734 | 0.851 | 0.962 | 1.01 | 0.665 | 0.643 | 0.911 | 0.92 | 1 | 0.878 | 0.634 | 0.77 | 0.865 | 0.925 | 0.821 | 0.784 | 0.242 | 0.244 | 0.274 | 0.242 | 0.267 |
| NCI-H1755 | 0.939 | 0.882 | 0.981 | 0.661 | 0.794 | 1.03 | 1.1 | 1.14 | 0.906 | 0.422 | 0.974 | 1.04 | 0.986 | 0.839 | 0.905 | 0.585 | 0.587 | 0.569 | 0.375 | 0.514 |
| NCI-H1915 | 0.948 | 0.979 | 0.961 | 0.918 | 0.671 | 1.13 | 1.24 | 1.08 | 1.12 | 1.03 | 0.813 | 0.811 | 0.81 | 0.681 | 0.781 | 0.44 | 0.477 | 0.437 | 0.378 | 0.353 |
| NCI-H1975 | 0.332 | 0.348 | 0.373 | 0.404 | 0.296 | 1.01 | 0.946 | 1.06 | 0.508 | 0.189 | 1.08 | 0.941 | 1.04 | 1.12 | 0.8 | 0.691 | 0.677 | 0.865 | 0.665 | 0.311 |
| NCI-H1993 | 1.26 | 1.29 | 1.32 | 0.797 | 0.695 | 0.631 | 0.724 | 0.749 | 0.716 | 0.675 | 0.937 | 0.902 | 0.839 | 1.01 | 0.6 | 0.561 | 0.606 | 0.619 | 0.579 | 0.602 |
| NCI-H2009 | 1.01 | 0.926 | 1.07 | 0.185 | 0.898 | 1.28 | 1.18 | 1.29 | 0.957 | 0.475 | 1.15 | 1.24 | 1.22 | 1.01 | 1.2 | 0.72 | 0.63 | 0.743 | – | 0.629 |
| NCI-H2023 | 0.876 | 0.724 | 1 | 0.239 | 0.602 | 0.79 | 0.74 | 0.627 | 0.439 | 0.149 | 1.02 | 0.628 | 1.07 | 0.839 | 0.87 | 0.256 | 0.228 | 0.36 | 0.196 | 0.177 |
| NCI-H2085 | 1.03 | 1.06 | 0.997 | 0.888 | 0.976 | 0.954 | 1.01 | 0.904 | 0.777 | 0.605 | 1.03 | 1.11 | 1.22 | 1.07 | 1.2 | 0.768 | 0.748 | 0.932 | 0.817 | 0.706 |
| NCI-H2087 | 0.947 | 0.97 | 0.945 | 0.594 | 0.641 | 1.02 | 0.979 | 1.02 | 0.459 | 0.167 | 1.1 | 1.05 | 0.861 | 0.843 | 0.821 | 0.219 | 0.259 | 0.196 | 0.141 | 0.203 |
| NCI-H2126 | 1.13 | 1.14 | 1.13 | 0.687 | 1.06 | 0.732 | 0.739 | 0.749 | 0.701 | 0.775 | 0.95 | 0.808 | 0.945 | 0.925 | 0.878 | 0.768 | 0.828 | 0.767 | 0.727 | 0.646 |
| NCI-H2228 | 1.05 | 0.89 | 0.787 | 0.72 | 0.765 | 0.839 | 0.607 | 1 | 0.803 | 0.338 | 0.81 | 1.09 | 0.941 | 0.787 | 0.791 | 0.273 | 0.308 | 0.272 | 0.296 | 0.199 |
| NCI-H2347 | 0.885 | 0.737 | 0.941 | 0.77 | 1.05 | 1.01 | 1.04 | 1.13 | 0.805 | 0.913 | 0.731 | 0.915 | 0.717 | 0.533 | 0.754 | 0.557 | 0.669 | 0.571 | – | 0.414 |
| NCI-H2405 | 0.592 | 0.929 | 0.949 | 0.676 | 0.921 | 0.974 | 0.755 | 0.968 | 0.783 | 0.435 | 0.906 | 0.72 | 0.954 | 0.716 | 0.846 | 0.726 | 0.755 | 0.729 | 0.666 | 0.497 |
